Test results from publication PMC9583845, “Characterization of the chicken melanocortin 5 receptor and its potential role in regulating hepatic glucolipid metabolism” (Frontiers in Physiology, 2022).

Key:
chicken MC5R + MRAP1 = chicken MC5R + MRAP1 (Gallus gallus, UniProt O73671); assay: pGL3-CRE-luciferase reporter assay, CHO cells co-expressing MC5R and cMRAP1; format: cell-based; conditions: for effect of MRAP1 co-expression on sensitivity of MC5R: vs MC5R expressed alone
Procedure: The expression plasmids encoding MC5R, MRAP1 and MRAP2 were established by cloning their entire open reading frame (ORF) into the pcDNA3.1 (+) expression vector (Invitrogen).
The cells were then transfected with a mixture containing 700 ng pGL3-CRE-Luciferase reporter construct, 200 ng of receptor expression plasmid (or empty pcDNA3.1 vector as a negative control), 20 ng of pRL-TK construct (containing a Renilla luciferase gene, used as an internal control), and 2 μl jetPRIME transfection reagent (Polyplus Transfection, Illkirch, France) in 200 μL buffer. […] After removal of the medium from the 96-well plate, the cells were treated with 100 μl ligand-containing medium (or ligand-free medium) for 6 h. Finally, CHO cells were lysed with 1 × passive lysis buffer for luciferase assay (Promega) and the luciferase activity of the cell lysate was measured by a Multimode Microplate Reader (TriStar LB941, EG&G Berthold, Germany) according to the manufacturer’s instruction.
All statistical analysis was performed using GraphPad Prism 9 (Graph Pad Software Inc., San Diego, CA). The dose-response curves were constructed using nonlinear regression models. Student’s test was used to compare two groups, for more than two groups one-way ANOVA was performed followed by Dunnett’s test. To validate our results, all in-vitro experiments were repeated three times, and representative data are reported.

[1] = test system: ELOVL6 mRNA, primary chicken hepatocytes; assay: ELOVL6 mRNA in primary chicken hepatocytes, RT-qPCR; format: cell-based; conditions: 6 h, N = 4, Figures 8A-C
Procedure: (§1) To evaluate the effect of ACTH1-39 on chicken liver, the chicken hepatocytes were prepared and maintained as a monolayer culture. Briefly, one-month-old male chicken hepatocytes were isolated by perfusion of a liver with Ca^2+-free KRB buffer to remove blood cells, and being digested with 0.25% collagenase-I for 10 min. Hepatocytes were obtained following filtering and washing using M199 medium. Then the hepatocytes were plated in a Corning CellBIND 48-well microplate (Corning, NY, cat. no.3338) with M199 medium containing 100 U/ml penicillin and […] streptomycin (Gibco), 5 μg/ml bovine insulin (Sigma), and 5% FBS at 37°C in a 5% CO2 atmosphere. To adhere to the wall, the cells were incubated on the 48-well plate for 4 h.
(§2) For quantitative real-time PCR, primary cultured chicken hepatocytes were treated with various concentrations of ACTH1-39 (or other composition) at 37°C for 6 h. The relative amount of mRNA was calculated using the comparative Ct method. Chicken β-actin gene was used as the reference gene. Amplification of specific transcripts was confirmed by analyzing the melting curve profile performed at the end of each run and by determining the size of the PCR products using agarose electrophoresis and ethidium bromide staining.

[2] = test system: primary chicken hepatocytes; assay: Triglyceride content, primary chicken hepatocytes; format: cell-based; conditions: 24 h, normalized to protein, Figure 7E
Procedure: as §1
For measurement of triglyceride content, after treated with ACTH1-39 for 24 h, hepatocytes were harvested and triglyceride (TG) content was analyzed using a commercial triglyceride content assay kit (Applygen, Beijing, China, catalog no. E1013). Results were normalized to the protein content of each sample, as determined using a BCA assay kit (Beyotime Institute of Biotechnology, China, catalog no. P0010).

chicken MC3R = test system: chicken MC3R; design: method as in Zhang et al., 2017; Thomas et al., 2018; conditions: ref Zhang et al., 2017; Thomas et al., 2018; cited from earlier work
chicken MC1R = test system: chicken MC1R; design: method as in Ling et al., 2003; Ling et al., 2004; Mundy, 2005; conditions: ref Ling et al., 2003, 2004, Mundy, 2005; cited from earlier work
[3] = test system: THRSPA mRNA, primary chicken hepatocytes; assay: THRSPA mRNA in primary chicken hepatocytes, RT-qPCR; format: cell-based; conditions: 6 h, N = 4, Figures 8D-F
Procedure: as §1, §2

7-day chickens = conditions: continuous administration through mini-osmotic pumps, ref Puvadolpirod and Thaxton, 2000a; cited from earlier work
Description: Early studies have tested the effect of continuous ACTH administration in 7-day chickens ([Puvadolpirod and Thaxton, 2000a]; [Puvadolpirod and Thaxton, 2000b]; [Puvadolpirod and Thaxton, 2000c]; [Puvadolpirod and Thaxton, 2000d]; [Thaxton and Puvadolpirod, 2000]). […] A series of effects of ACT ...

chicken MC5R + MRAP1, sequence (O73671 1-325): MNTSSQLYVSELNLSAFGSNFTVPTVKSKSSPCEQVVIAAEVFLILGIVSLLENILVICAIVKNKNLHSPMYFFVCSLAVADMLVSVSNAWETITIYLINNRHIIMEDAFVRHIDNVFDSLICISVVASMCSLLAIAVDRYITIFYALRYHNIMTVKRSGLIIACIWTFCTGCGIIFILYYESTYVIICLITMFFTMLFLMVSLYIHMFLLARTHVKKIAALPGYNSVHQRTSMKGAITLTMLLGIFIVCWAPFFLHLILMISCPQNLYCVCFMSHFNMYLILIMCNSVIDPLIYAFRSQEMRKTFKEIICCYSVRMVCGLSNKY

EC50 (chicken MC5R + MRAP1; Table 1 / Figure 3, co-expressed with cMRAP1, 6 h, pGL3-CRE-luciferase, mean ± SEM of at least three independent experiments (figure: four replicates)): 2.12 ± 0.37 nM
Substance: H-SYSMEHFRWGKPVGRKRRPIKVYPNGVDEESAESYPMEF-OH [ACTH1-39]
effect of MRAP1 co-expression on sensitivity of MC5R (chicken MC5R + MRAP1): did not affect the sensitivity of cMC5R to ACTH1-39
effect of MRAP1 co-expression on sensitivity of MC5R (chicken MC5R + MRAP1; listed as ACTH): no effect on the sensitivity of chicken MC5R for ACTH
ELOVL6 mRNA expression [1]: dose-dependently decreased
triglyceride (TG) contents [2]: decreased triglyceride contents
triglyceride (TG) contents ([2]; listed as ACTH): prominently decreased triglyceride (TG) contents
activation of chicken MC3R (chicken MC3R): activated by both α-MSH and ACTH
MC1R response (chicken MC1R): promoting intracellular cAMP accumulation
THRSPA mRNA expression [3]: dose-dependently decreased
plasma corticosterone (7-day chickens): a fast rise in plasma corticosterone
plasma glucose and relative liver weight (7-day chickens): an increase in plasma glucose and relative liver weight
